Holding throughout (assay): DTP human tumour cell line panel, 48 h
Assay [1] relates to SNB-19 CNS.
The test system of assay [2] is ACHN renal.
The subject of assay [3] is MALME-3M melanoma.
Assay [4] deals with U251 CNS.
Assay [5] relates to NCI-H23 lung.
Assay [6] deals with SF-539 CNS.
In assay [7] the test system is OVCAR-4 ovarian.
Assay [8] deals with HOP-62 NSCLC.
Assay [9] deals with HOP-92 NSCLC.
Assay [10] concerns NCI/ADR-RES ovarian.

Molecules are shown by their SMILES.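 Where inhibition never reached the appropriate level, the endpoint shown equals the highest concentration tested. Otherwise, values were interpolated linearly from a five-concentration, 48-hour dose response in 96-well plates. GI50 = concentration required for 50% inhibition of growth. Definition used: TGI = concentration required for complete inhibition of growth.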

The TGI is the concentration at which net growth stops. Read a high TGI as lower sensitivity of the cells. Take `CC(C)CCCC(C)[C@H]1CCC2[C@@H]3CCC4Nc5nocc5C[C@]4(C)C3CC[C@@]21C` (stereo partly drawn): the TGI in [1] was 37.5 µM; in assay [2], 28.6 µM; in assay [3], 40.2 µM; in assay [4], 32 µM; in assay [5], 31.4 µM; in [6] it was 33.5 µM. Besides, the TGI in assay [7] was 39.3 µM; in [8], > 100 µM.

As to `COCC(O)Cn1ccnc1[N+](=O)[O-]` (stereo not drawn), the TGI in assay [1], in assay [2], in assay [3], in [4], in assay [5] and in assay [6] was > 100 µM in each case. Moreover, the concentration for total growth inhibition (TGI) in assay [8] is > 100 µM.

With `Cc1cc2c(C)nn(Cc3ccccc3)c2c(C(N)=O)c1C`, the TGI in assay [1], in assay [2], in [3], in [4], in assay [5] and in assay [6] was > 100 µM each time. Moreover, the TGI in assay [7], in assay [8] and in assay [9] was > 100 µM throughout.

For `COC1OC(CBr)C(OC(=O)c2ccccc2)C(O)C1Br` (stereo not drawn), the concentration for total growth inhibition (TGI) in assay [1], in assay [3], in assay [4], in [5], in assay [6] and in assay [7] was > 100 µM throughout. The concentration for total growth inhibition (TGI) in assay [8] and in [9] was > 100 µM each time.

Regarding `O=C1Nc2nc3ccccc3n2N=C2CCCC12` (stereo not drawn), the concentration for total growth inhibition (TGI) in assay [1], in assay [2], in assay [3], in assay [4], in [5] and in assay [6] was > 100 µM in each case. For the same compound, the TGI in [7] and in assay [8] was > 100 µM each time.

What is called GI50 is the concentration that inhibits growth by half. `NC(=O)c1ccccc1Nc1ccc2nnc(-c3ccncc3)n2n1`: the GI50 is 14.4 µM in assay [1]; 6.32 µM in assay [2]; 8.38 µM in assay [3]; 7.4 µM in assay [4]; 15 µM in assay [5]; 15.3 µM in assay [6]. In addition, the GI50 in [7] was 15.1 µM; in assay [8], 9.93 µM; in assay [10], 14.7 µM. Besides, the concentration for total growth inhibition (TGI) in assay [1] worked out at 31.8 µM; in assay [2], 20.7 µM; in [3], 22.5 µM; in assay [4], 20.6 µM; in assay [5], 40.4 µM; in assay [6], 28.9 µM. The TGI in assay [7] is 30.5 µM; in [8], 22.4 µM; in assay [10] it was 44.7 µM.

In the case of `O=C(Nc1cccc(-n2cc(-c3ccncc3)c(-c3cc(O)cc(Cl)c3)n2)c1)Nc1ccc(Cl)c(C(F)(F)F)c1`, the GI50 in assay [1] is 3.7 µM; in assay [2], 3.1 µM; in assay [3], 2.37 µM; in assay [4], 1.72 µM; in assay [5] it was 2.58 µM; in assay [6] it was 1.97 µM. For the same compound, the GI50 in assay [7] is 3.21 µM; in [8], 3.08 µM; in [10] it was 3.4 µM. The total growth inhibition concentration (TGI) in assay [1] was 16.6 µM; in assay [2] it was 15.3 µM; in assay [3], 6.25 µM; in [4] it was 3.65 µM; in [5], 7.45 µM; in [6] it was 4.49 µM. For the same compound, the results for the TGI in assay [7], in assay [8] and in assay [10] were 9.23 µM, 13.4 µM and 23.6 µM, respectively.

As to `C[C@]12CCC(=O)C=C1CC[C@@H]1C2CC[C@]2(C)Nc3c(cnn3-c3ccccc3)CC12` (stereo partly drawn), the total growth inhibition concentration (TGI) in assay [2], in assay [3], in assay [4], in assay [5], in assay [6] and in assay [7] was > 100 µM each time. Also, the total growth inhibition concentration (TGI) in [8] is > 100 µM.

As for `N.N.N.N.N.[Cl-].[Co+3].c1ccc(-c2nn[n-]n2)cc1`, the GI50 in assay [1], in assay [2], in assay [3], in assay [4], in assay [5] and in assay [6] was > 100 µM in each case. The GI50 in [7] was > 100 µM; in [8] it was > 100 µM; in assay [9], > 100000 nM. Further, the concentration for total growth inhibition (TGI) in [1], in assay [2], in [3], in assay [4], in assay [5] and in assay [6] was > 100 µM throughout. The TGI in assay [7], in assay [8] and in assay [9] was > 100 µM each time.

On to `O=c1[nH]nc2ccccc2c1Cc1ccccc1`, for which the TGI in assay [1], in assay [2], in assay [3], in assay [4], in assay [5] and in [6] was > 100 µM in each case. For the same compound, the TGI in assay [7], in [8] and in assay [9] was > 100 µM in each case.

In the case of `C1COCCN1.C1COCCN1.NC1CCCCC1N.[Cl-].[Pt+2]` (stereo not drawn), the GI50 in assay [1] was > 100 µM; in [2], > 100 µM; in assay [3] it was 50.6 µM; in assay [4], > 100 µM; in [5], > 100 µM; in assay [6], > 100 µM. Besides, the figures for the GI50 in assay [7], in assay [8] and in [9] were > 100 µM, > 100 µM and > 100000 nM, respectively. Moreover, the total growth inhibition concentration (TGI) in [1], in assay [2], in assay [3], in assay [4], in [5] and in assay [6] was > 100 µM throughout. Besides, the TGI in [7], in [8] and in assay [9] was > 100 µM each time.

For the compound `CC1OC(OC2C[C@](O)(C(=O)CF)Cc3c(O)c4c(c(O)c32)C(=O)c2ccccc2C4=O)CC(N)C1O` (stereo partly drawn), the total growth inhibition concentration (TGI) in assay [1] was 5.23 µM; in assay [2] it was 0.0777 µM; in [3] it was 0.191 µM; in assay [4], 0.394 µM; in assay [5] it was 0.169 µM; in assay [6] it was 1.33 µM. The TGI in [7] turned out to be 0.86 µM; in [8], 0.0462 µM; in [9], 0.805 µM.

As for `CCN(CC)CCOc1ccc(CCc2cc(OC)c(OC)c(OC)c2)cc1`, the TGI in assay [1], in [2], in assay [3], in assay [4], in [6] and in assay [7] was > 100 µM each time. Further, the total growth inhibition concentration (TGI) in [8] turned out to be 81.4 µM; in assay [9] it was 82.6 µM.

On to `Cc1ccc(SSc2ccc(C)cc2C(=O)O)c(C(=O)O)c1`, for which the TGI in assay [1], in assay [2], in assay [3], in assay [4], in [5] and in [6] was > 100 µM each time. Besides, the TGI in assay [7], in assay [8] and in assay [9] was > 100 µM in each case.

`O=C1NC2(CCCCCC2)C2CCCCCCC12O` (stereo not drawn): the concentration for total growth inhibition (TGI) in [1], in assay [2], in assay [3], in [4], in [5] and in [6] was > 100 µM each time. Further, the TGI in [7], in [8] and in assay [9] was > 100 µM in each case.

Turning to `Cc1oc2c(C)c3oc(=O)cc(C)c3cc2c1CN1C(=O)C2OCCOCCOCCOCCOCCO[C@H]2C1=O` (stereo partly drawn), the TGI in [1], in assay [2], in assay [3], in assay [4], in assay [5] and in assay [6] was > 100 µM each time. Also, the TGI in [7], in [8] and in assay [9] was > 100 µM each time.

On to `CCCc1cc(=O)[nH]c(-n2nc(C)cc2C)n1`, for which the GI50 in assay [1] was 4.5 µM; in [2], 3.97 µM; in assay [4] it was 1.71 µM; in assay [6], 2.99 µM; in [7], 4.68 µM; in [8], 5.58 µM. Further, the GI50 in assay [10] is 2.73 µM. Moreover, the concentration for total growth inhibition (TGI) in [1], in assay [2], in assay [4], in assay [6], in assay [7] and in assay [8] was > 100 µM throughout. The concentration for total growth inhibition (TGI) in [10] was > 100 µM.

For `CCOC(=O)c1c2c(n(Cc3ccc(Cl)cc3Cl)c1C)-c1nc[nH]c1C(=O)C2=O`, the GI50 was 12.6 µM in assay [1]; 4.45 µM in [2]; 11.6 µM in assay [3]; 7.01 µM in assay [4]; 4.4 µM in assay [6]; 6.58 µM in assay [7]. The results for the GI50 in [8] and in assay [9] were 16.4 µM and 1280 nM, respectively. For the same compound, the TGI in assay [1] is 26.2 µM; in assay [2], 16.1 µM; in [3], 27.4 µM; in [4], 19.5 µM; in assay [6], 16.4 µM; in [7], 19.3 µM. The TGI in assay [8] is 32.6 µM; in [9], 2.75 µM.

For `C1=CC=C2NCCCCCCCNC3=CC=CC=CC3=NCCCCCCCN=C2C=C1`, the TGI in assay [1], in assay [2], in [3], in [5], in [6] and in [7] was > 100 µM throughout. Also, the TGI in assay [9] stood at 98.6 µM.

As for `CN1CCN(CCOc2ccc(-c3cnc4c(-c5ccc(C(F)(F)F)cc5)cnn4c3)cc2)CC1`, the GI50 was 1.72 µM in assay [1]; 1.57 µM in [2]; 1.48 µM in [3]; 1.3 µM in [4]; 1.62 µM in assay [5]; 1.64 µM in assay [6]. Further, the GI50 in [7] is 1.16 µM; in [8], 1.63 µM; in [9], 1070 nM. The TGI in assay [1] is 3.22 µM; in [2], 2.91 µM; in assay [3], 2.89 µM; in assay [4], 2.67 µM; in assay [5] it was 3.14 µM; in [6], 3.04 µM. For the same compound, the TGI in assay [7] was determined as 2.48 µM; in [8], 3.55 µM; in assay [9], 2.33 µM.

For `O=C1C2C3C=C4c5ccccc5N(c5ccccc5)C4(C2C(=O)N1c1ccc(Cl)cc1)[C@H]1C(=O)N(c2ccc(Cl)cc2)C(=O)[C@@H]31` (stereo partly drawn), the concentration for total growth inhibition (TGI) in assay [1], in assay [3], in assay [4], in [5], in assay [6] and in [7] was > 100 µM throughout. Besides, the TGI in [8] and in assay [9] was > 100 µM throughout.

Take `O=C(CC(=O)C1=CNc2ccccc2S1)C(=O)Nc1ccc(Cl)cc1`: the total growth inhibition concentration (TGI) in [1], in assay [2], in assay [3], in [4], in [5] and in assay [6] was > 50 µM each time. The concentration for total growth inhibition (TGI) in assay [7], in [8] and in assay [9] was > 50 µM each time.

For `COc1ccc2c(c1)[n+]([O-])c(-c1ccc(OC)c(OC)c1)c(N)[n+]2[O-]`, the TGI was > 100 µM in assay [1]; > 100 µM in [2]; > 100 µM in assay [3]; > 100 µM in [4]; 57 µM in assay [5]; > 100 µM in assay [6]. The TGI in assay [7] and in assay [8] was > 100 µM throughout.

For `Cc1cc(NCCCCCCNc2cc(C)nc3cc(N(C)C)ccc23)c2ccc(N(C)C)cc2n1`, the total growth inhibition concentration (TGI) in assay [1] is 92.7 µM; in assay [2], > 100 µM; in [3], 62.6 µM; in assay [4], > 100 µM; in assay [5], > 100 µM; in [6] it was > 100 µM. In addition, the TGI in [7] and in assay [8] was > 100 µM in each case.

On to `OCC1C(/C=C/c2ccoc2)ON2CCCC12` (stereo not drawn), for which the concentration for total growth inhibition (TGI) in [1], in [2], in [3], in assay [4], in [5] and in assay [6] was > 100 µM throughout. In addition, the total growth inhibition concentration (TGI) in assay [7] and in assay [8] was > 100 µM each time.

Source of the values: PubChem BioAssay (NCI).
